Test results from PMC11352409, “Subtype-Specific Ligand Binding and Activation Gating in Homomeric and Heteromeric P2X Receptors” (Biomolecules, 2024).

Molecular target: T1, human P2X2 receptors (Homo sapiens, UniProt Q9UBL9)
T1 construct: expressed in transfected cells
T1 sequence (Q9UBL9 1-404 isoform Q9UBL9-2): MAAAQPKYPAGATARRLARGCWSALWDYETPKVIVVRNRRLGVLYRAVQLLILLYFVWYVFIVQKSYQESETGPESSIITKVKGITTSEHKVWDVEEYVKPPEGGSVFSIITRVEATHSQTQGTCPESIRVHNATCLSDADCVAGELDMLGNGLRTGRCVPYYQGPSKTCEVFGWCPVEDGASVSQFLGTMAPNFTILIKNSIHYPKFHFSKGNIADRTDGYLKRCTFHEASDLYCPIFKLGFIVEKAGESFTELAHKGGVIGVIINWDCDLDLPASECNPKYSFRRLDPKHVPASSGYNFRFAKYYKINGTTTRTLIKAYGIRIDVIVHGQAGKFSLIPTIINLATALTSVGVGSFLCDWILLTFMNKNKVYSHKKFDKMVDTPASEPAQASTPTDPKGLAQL
Assay: Confocal microscopy binding of fluorescent ATP derivatives to HEK293 cells expressing hP2X2
Conditions: for Binding to receptor: hP2X2, confocal binding signal
Protocol: For the detection of ligand binding, the cells were incubated with the fluorescent ATP derivatives in chambered coverslips or 96-well plates with cover-slip bottoms. The surface was coated with 0.1 mg/mL of poly-L-lysine for 12 h and washed twice with PBS before seeding the cells at […] density. The cells were suspended 24 h after induction and allowed to settle for two hours before being utilised for the measurements. The solutions were freshly prepared before each experiment. The bulk solution was counter-stained with the red fluorescence dye Dy647. Each confocal voxel covering the cell membrane contained both the signal from the bound ligand and the signal from ligands in the bulk solution. This additional signal, e.g., the fraction of the bulk solution inside a voxel, varied from pixel to pixel and can hardly be described theoretically.
Figure 2 Confocal microscopy was used to characterise the binding of fluorescently tagged ligands to HEK 293 cells stably expressing human P2X2 receptors. (a) Structure of fATP and α,βMe-fATP. The dye DY547P1 is attached to the 2-position of the purine ring through an aminohexylthio-linker. (b) Representative confocal images for quantification of fATP and α,βMe-fATP binding, including approximately 200 stably transfected cells/mm^2. Specific binding is proven by the lack of signal in non-induced cells and in cells expressing P2X2 receptors in the presence of 100 µM ATP. […]
The concentration–binding relationships were normalised to their maximum relative fluorescence intensities at a saturating fATP or α,βMe-fATP concentration.
Measuring the binding of ligands to receptors is challenging. […] Ligand binding was measured in stably transfected HEK293 cells expressing P2X receptors, attached to the glass bottom of the experimental chamber (Figure 2b). Quantifying ligand binding by automated fluorescence methods remains demanding at low expression levels and high ligand concentrations when the background signal becomes significant. To address this issue, we used the red fluorescence dye Dy647 at a concentration of 1 µM [27, 33, 34]. […]

SMILES	Binding to receptor	Fraction of ligand remaining bound at high Mg2+ (hP2X2, fATP binding after application of 10 mM Mg2+)
COCC[N+]1=C(C=CC=C2N(CCCCCC(=O)NCCCCCCSc3nc(N)c4ncn(C5OC(COP(=O)(O)OP(=O)(O)OP(=O)(O)O)C(O)C5O)c4n3)c3ccc(S(=O)(=O)O)cc3C2(C)C)C(C)(C)c2cc(S(=O)(=O)[O-])ccc21 (stereo not drawn) [fATP, 2-[DY-547P1]-AHT-ATP]	robust binding affinity	~ 40%
COCC[N+]1=C(C=CC=C2N(CCCCCC(=O)NCCCCCCSc3nc(N)c4ncn(C5OC(COP(=O)(O)CP(=O)(O)OP(=O)(O)O)C(O)C5O)c4n3)c3ccc(S(=O)(=O)O)cc3C2(C)C)C(C)(C)c2cc(S(=O)(=O)[O-])ccc21 (stereo not drawn) [α,βMe-fATP, 2-[DY-547P1]-AHT-α,βMe-ATP]	robust binding affinity	–
